Here are results for 31 compounds from ChEMBL document CHEMBL2040737, “Synthesis and biological evaluation of novel 2-(2-arylmethylene)hydrazinyl-4-aminoquinazoline derivatives as potent antitumor agents” (Eur J Med Chem, 2012).

The test system of one test is SGC-7901. The test is described as follows: Cytotoxicity against human SGC7901 cells after 72 hrs by MTT assay. Format: functional, cell-based. As to conditions: SGC-7901, 72 h. (Formazan colour is commonly taken as a measure of viable cells.)
Test [1] deals with HepG2. Briefly: Cytotoxicity against human HepG2 cells after 72 hrs by MTT assay. Format: functional, cell-based. As to conditions: HepG2, 72 h.
Another test relates to NCI-H460. The test is described as follows: Cytotoxicity against human H460 cells after 72 hrs by MTT assay. Conditions: NCI-H460, 72 h. In kind it is functional, cell-based.
The test system of test [2] is HT-29. The test is described as follows: Cytotoxicity against human HT-29 cells after 72 hrs by MTT assay. Format: functional, cell-based. As to conditions: HT-29, 72 h.
For test [3], the system named is HT-29. Briefly: Ratio of iressa IC50 to compound IC50 for human HT-29 cells. Format: functional.
Test [4] deals with HepG2. Briefly: Ratio of iressa IC50 to compound IC50 for human HepG2 cells. In kind it is functional.

In general, IC50 refers to the concentration that gives 50% inhibition. Read a low IC50 as higher potency. For `Clc1cccc(Cn2ccnc2/C=N/Nc2nc(NCCCN3CCOCC3)c3ccccc3n2)c1Cl`, the IC50 amounted to 2660 nM with SGC-7901, 1250 nM in the test on HepG2 [1], 910 nM in the test with NCI-H460 and 720 nM in the test on HT-29 [2].
On to `CN1CCC(Nc2nc(N/N=C/c3nccn3Cc3ccccc3)nc3ccccc23)CC1`, for which the concentration for half-maximal inhibition (IC50) turned out to be 1380 nM in the test on SGC-7901, 1420 nM with HepG2 [1], 1030 nM in the test on NCI-H460 and 750 nM in the test on HT-29 [2].
Regarding `Cc1ccc(-c2cc(NCCN(C)C)c3ccccc3n2)cc1`, the IC50 in the test on SGC-7901 came to 4920 nM; in the test with HepG2 [1], 2060 nM; in the test on NCI-H460, 3520 nM; in the test with HT-29 [2], 1350 nM.
`CN1CCC(Nc2nc(N/N=C/c3ccc(F)cc3Cl)nc3ccccc23)CC1`: the IC50 is 1630 nM in the test with SGC-7901, 1120 nM with HepG2 [1], 610 nM with NCI-H460 and 270 nM in the test with HT-29 [2].
The like results for `Fc1ccc(Cn2ccnc2/C=N/Nc2nc(NCCCN3CCOCC3)c3ccccc3n2)cc1` were, in that order, 1920 nM, 2210 nM, 2470 nM and 930 nM.
For `Oc1ccccc1/C=N/Nc1nc(NCCCN2CCOCC2)c2ccccc2n1`, in that order: 3210 nM, 3830 nM, 2950 nM and 2080 nM.
As to `CN1CCC(Nc2nc(N/N=C/c3nccn3Cc3cccc(Cl)c3Cl)nc3ccccc23)CC1`, the IC50 in the test with SGC-7901 came out at 580 nM; in the test on HepG2 [1], 530 nM; in the test on NCI-H460, 31 nM; with HT-29 [2], 15 nM. The Ratio IC50 in the test on HT-29 [3] came to 224; in the test on HepG2 [4] it was 12.
With `CN(C)CCCNc1nc(N/N=C/c2nccn2Cc2ccc(F)cc2)nc2ccccc12`, the IC50 with SGC-7901 is 3510 nM; with HepG2 [1], 2860 nM; in the test with NCI-H460 it was 640 nM; with HT-29 [2], 630 nM.
For `Fc1ccc(/C=N/Nc2nc(NCCCN3CCOCC3)c3ccccc3n2)cc1`, in that order: 6770 nM, 4020 nM, 5870 nM and 2190 nM.
The like results for `Cc1ccc(Cn2ccnc2/C=N/Nc2nc(NCCCN3CCOCC3)c3ccccc3n2)cc1` were, in that order, 3020 nM, 3190 nM, 3760 nM and 3160 nM.
The like results for `CN1CCC(Nc2nc(N/N=C/c3ccc(F)cc3)nc3ccccc23)CC1` were, in that order, 1760 nM, 1950 nM, 2640 nM and 1410 nM.
As to `CN(C)CCNc1nc(N/N=C/c2nccn2Cc2ccccc2)nc2ccccc12`, the IC50 in the test on SGC-7901 came out at 4300 nM; in the test on HepG2 [1] it was 9600 nM; with NCI-H460, 9650 nM; in the test on HT-29 [2] it was 2620 nM.
The like results for `Clc1ccc(/C=N/Nc2nc(NCCCN3CCOCC3)c3ccccc3n2)cc1` were, in that order, 3550 nM, 1740 nM, 4000 nM and 610 nM.
For `C(=N\Nc1nc(NCCCN2CCOCC2)c2ccccc2n1)/c1nccn1Cc1ccccc1`, in that order: 3960 nM, 4800 nM, 4030 nM and 2840 nM.
Consider `CN(C)CCNc1nc(N/N=C/c2ccc(Cl)cc2)nc2ccccc12`, for which the IC50 with SGC-7901 worked out at 970 nM; in the test with HepG2 [1], 370 nM; in the test on NCI-H460, 3250 nM; with HT-29 [2] it was 210 nM.
For `COc1ccc(OC)c(/C=N/Nc2nc(NC3CCN(C)CC3)c3ccccc3n2)c1`, in that order: 4240 nM, 7170 nM, 4760 nM and 2830 nM.
For `CN(C)CCCNc1nc(N/N=C/c2ccc(F)cc2)nc2ccccc12`, in that order: 2760 nM, 880 nM, 4090 nM and 870 nM.
For `Cc1ccc(Cn2ccnc2/C=N/Nc2nc(NC3CCN(C)CC3)c3ccccc3n2)cc1`, in that order: 960 nM, 1230 nM, 770 nM and 200 nM.
On to `CN1CCC(Nc2nc(N/N=C/c3ccc(Cl)cc3)nc3ccccc23)CC1`, for which the IC50 came to 1320 nM with SGC-7901, 170 nM with HepG2 [1], 210 nM in the test with NCI-H460 and 23 nM in the test on HT-29 [2].
For `CN(C)CCNc1nc(N/N=C/c2nccn2Cc2cccc(Cl)c2Cl)nc2ccccc12`, in that order: 1850 nM, 670 nM, 870 nM and 260 nM.
For `CN(C)CCCNc1nc(N/N=C/c2ccc(F)cc2Cl)nc2ccccc12`, in that order: 1660 nM, 670 nM, 1800 nM and 1150 nM.
The like results for `CN(C)CCNc1nc(N/N=C/c2nccn2Cc2ccc(F)cc2)nc2ccccc12` were, in that order, 2420 nM, 3060 nM, 1050 nM and 930 nM.
As for `CN(C)CCNc1nc(N/N=C/c2ccc(F)cc2Cl)nc2ccccc12`, the IC50 with SGC-7901 was 1680 nM; in the test with HepG2 [1], 680 nM; in the test on NCI-H460 it was 1760 nM; in the test with HT-29 [2], 330 nM.
The like results for `CN(C)CCNc1nc(N/N=C/c2ccc(F)cc2)nc2ccccc12` were, in that order, 4100 nM, 1820 nM, 5680 nM and 1530 nM.
The like results for `CN1CCC(Nc2nc(N/N=C/c3nccn3Cc3ccc(F)cc3)nc3ccccc23)CC1` were, in that order, 780 nM, 980 nM, 210 nM and 650 nM.
The like results for `CN(C)CCCNc1nc(N/N=C/c2ccc(Cl)cc2)nc2ccccc12` were, in that order, 1730 nM, 550 nM, 1490 nM and 270 nM.
Take `Oc1cccc(/C=N/Nc2nc(NCCCN3CCOCC3)c3ccccc3n2)c1`: the IC50 with SGC-7901 stood at 4900 nM; in the test with HepG2 [1], 6490 nM; in the test on NCI-H460, 4670 nM; in the test with HT-29 [2], 6320 nM.
For `CN(C)CCCNc1nc(N/N=C/c2nccn2Cc2cccc(Cl)c2Cl)nc2ccccc12`, in that order: 1170 nM, 850 nM, 430 nM and 360 nM.
As for `Cc1ccc(Cn2ccnc2/C=N/Nc2nc(NCCN(C)C)c3ccccc3n2)cc1`, the IC50 in the test on SGC-7901 was 2750 nM; with HepG2 [1], 2980 nM; in the test on NCI-H460 it was 4200 nM; in the test on HT-29 [2], 1410 nM.
For `CN(C)CCCNc1nc(N/N=C/c2nccn2Cc2ccccc2)nc2ccccc12`, in that order: 2130 nM, 4040 nM, 4670 nM and 1980 nM.
The like results for `Cc1ccc(Cn2ccnc2/C=N/Nc2nc(NCCCN(C)C)c3ccccc3n2)cc1` were, in that order, 2600 nM, 3680 nM, 1690 nM and 2440 nM.
